{"source": "patent US20050075315A1", "about": "“Antitumor agent” (FUSO PHARMACEUTICAL INDUSTRIES, LTD, priority 2002, published 2005)", "key": {"[1]": {"system": "stomach cancer cell line (STKM)", "assay": "cell adhesiveness test by the calorimetric assay", "type": "cell-based", "conditions": "37° C. for 48 hrs, OD 600 nm, FIG. 1", "description": "The calorimetric assay as described in the examples below can be employed for assaying the adhesiveness of a cell, and the thymidine incorporate assay can be employed for assaying the mortality of a cell. These two assays are general methods for determining the behavior of a tumor cell. For the colorimetric assay, see Enhancer sequences of DF3 gene regulate expression of the herpes simplex virus thymidine kinase gene and confer sensitivity of human breast cancer cell to ganciclovir: Manome Y, Abe M, Hagen F. M, Fine A. H, and Kufe W. D, Cancer Research 54:5408-5413, 1994. For the thymidine incorporate assay, see Meneki Jikken Sousa-ho II (edited by S. Uda, S. Konda, Y. Honsho, T, Hamaoka, 773-774, Nanko-do, 1995).\n(§1) To 1×10^6 cells of a stomach cancer cell line (STKM), BA was added by such proportional concentrations as 1, 1.5, 2.0, 2.5 and 5 mg/ml. An equal amount of the physiological saline was added to prepare a control sample. All the samples were incubated at 37° C. for 48 hrs. The shape of the cell was studied through an inverted microscope. The adhesiveness and the mortality of the cell were measured by the calorimetric assay and the thymidine incorporate assay.\n(1) The Cell Adhesiveness Test by the Calorimetric Assay:\n100% gulutalaldehyde was added to each of samples by a ¼ the medium amount (250 μl), then left to stand at a room temperature for 15 min. […]"}, "[2]": {"system": "stomach cancer cell line (STKM)", "assay": "cell shape by inverted microscope in vitro", "type": "cell-based", "conditions": "BA 2.5 mg/ml, 37° C. for 48 hrs, FIG. 3", "protocol": "as §1\nOne ml of BA of 2.5 mg/ml was added to 1×10^6 cells followed by incubating at 37° C. for 48 hrs to get the image as shown in FIG. 3. The equal amount of physiological saline was similarly added, followed by incubating in the same way to get the control. […] The nucleus also got remarkably blackened. The above result confirms that a stomach cancer cell arrived at death in vitro."}, "[3]": {"system": "stomach cancer cell line (STKM) tumor", "assay": "antitumor effect on STKM tumor in nude mouse in vivo", "protocol": "1×10^8 cells of a stomach cancer cell line (STKM) were subcutaneously injected in the back of a nude mouse. When a tumor grew to have a diameter of 5 mm or more after 8 weeks, BA was administrated to the tumor or around the tumor by 4 mg/0.5 ml twice a week for 4 weeks. For a control, 0.5 ml of physiological saline was locally injected to the tumor. The tumor diameter was measured. The tumor tissue was taken out and subjected to the H-E dyeing to observe with a microscope.\nA stomach cancer cell line (STKM) was implanted in a living body. When a tumor grew to have a diameter of 5 mm or more, BA was administrated by 4 mg/0.5 ml twice a week for 4 weeks. […] The tumor diameter decreased to the ½ or less after the 32 mg administration (4 weeks).\nFIGS. 4 and 5 show the images obtained by extracting the tumor after 4 weeks of administration, fixing with 10% formalin, slicing to 3 μm pieces and H-E dyeing. […] The above result confirms that the stomach cancer cell arrived at death in vivo."}, "[4]": {"system": "STKM (a stomach cancer cell line)", "assay": "DNA Laddering assay", "type": "cell-based", "conditions": "2 ml of BA of 2.5 mg/ml, 48 hrs, FIG. 6", "description": "(§2) The DNA Laddering assay, the TUNEL assay and the Caspase assay as described in the examples below are general methods for determining whether a cell arrives at death through an apoptosis route or not. For the DNA Laddering assay, see Shin Apoptosis Jikken-ho (edited by K. Tsujimoto, S. Tone, T. Yamada, 59-66, Yodosya, 1999). For the TUNEL assay, see Shin Apoptosis Jikken-ho (edited by K. Tsujimoto, S. Tone, T. Yamada, 67-74, Yodosya, 1999). For the Caspase assay, see Shin Apoptosis Jikken-ho (edited by K. Tsujimoto, S. Tone, T. Yamada, 198-200, Yodosya, 1999).\n(§3) For a cell group capable of being guided to the cell mortality, it was determined that through which route, apoptosis or necrosis, the cell arrived at death. Namely, BA was added to the cell at a certain concentration or more necessary to guide to the cell mortality, and the cell was collected after confirmation of the change in shape. Then, the DNA Laddering assay with gel electrophoresis to investigate the DNA fragmentation and the TUNEL assay with the cell dyeing were carried out.\n2 ml of BA of 2.5 mg/ml was added to 1.5×10^6 cells (STKM) followed by incubating at 37° C. for 48 hrs to collect the cells. The collected cells were centrifuged and added in 100 μl of lysis buffer (10 mM EDTA, 50 mM Tris-HCl, pH 8.0, 0.5% SDS, 0.5 mg/ml Proteinase K), followed by incubating at […] for 3 hrs. […]"}, "STKM cells": {"system": "STKM cells", "assay": "TUNEL assay", "type": "cell-based", "conditions": "2 ml of BA of 2.5 mg/ml, 48 hrs, FIG. 7", "description": "as §2, §3\n2 ml of BA of 2.5 mg/ml was added to 1.5×10^5 cells (STKM) on a slide glass, followed by incubating at 37° C. for 48 hrs and fixing with 1% paraformaldehyde in PBS at a room temperature for 10 min. For a control, the equal amount of physiological saline was added. […]"}, "Caspase-3": {"system": "Caspase-3", "assay": "Caspase-3 activity assay", "type": "cell-based", "conditions": "2 ml of BA of 2.5 mg/ml", "description": "as §2\n(§4) To 1.5×10^6 cells, 2 ml of BA of 2.5 mg/ml for a test sample, the equal amount of physiological saline for a negative control sample, and Arac 1×10^−5M (Kirosaito, Nippon Shinyaku) for a positive control sample were added respectively, each of which was followed by incubating at 37° C. for 48 hrs to recover the cells. Then, the CPP32/Caspase-3, -8 Colorimetric Protease Assay kit (MBL Co.) was applied to the samples. The application was briefly as follows: • 1. […]"}, "Caspase-8": {"system": "Caspase-8", "assay": "Caspase-8 activity assay", "type": "cell-based", "conditions": "2 ml of BA of 2.5 mg/ml, 48 hrs", "description": "as §2, §4"}, "lung cell line (WI38)": {"system": "lung cell line (WI38)", "assay": "colorimetric assay on a normal cell", "type": "cell-based", "conditions": "FIG. 10", "protocol": "(§5) 100% gulutalaldehyde was added to each of samples by a ¼ the medium amount (250 μl), then left to stand at a room temperature for 15 min. After washing, 250 μl of 0.05% Methylene Blue in PBS was added and then left to stand at a room temperature for 15 min. After washing, 250 μl of 0.33N HCl was added, followed by leaving to stand at a room temperature for 15 min and measuring the OD (600 nm).\n(§6) In order to confirm that the BA administration effects specifically a cancer cell to arrive at death, the colorimetric assay was carried out on a normal cell, that is, an umbilical cord cell line (Huvec) and a lung cell line (WI38), in the same way as in Example 1. The stomach cancer cell line (STKM) was used for a control."}, "[5]": {"system": "umbilical cord cell line (Huvec)", "assay": "colorimetric assay on a normal cell", "type": "cell-based", "conditions": "FIG. 10", "protocol": "as §5, §6"}, "[6]": {"system": "breast cancer cell line BSMZ", "assay": "tests as in Examples 1, 2 and 3", "type": "cell-based", "protocol": "(§7) The tests were carried out on a breast cancer cell line (MCF-7, BSMZ), a large bowel cancer cell line (DLD, LOVO), a thyroid gland cancer cell line (SW1736), and a pancreas cancer cell line (PA-1) in the same ways as in Examples 1, 2, and 3. As the result, the cell mortality began with about 1.5 mg/ml of BA to increase in proportion to the BA concentration, same as adhesiveness thereof."}, "[7]": {"system": "breast cancer cell line MCF-7", "assay": "tests as in Examples 1, 2 and 3", "type": "cell-based", "protocol": "as §7"}, "[8]": {"system": "large bowel cancer cell line DLD", "assay": "tests as in Examples 1, 2 and 3", "type": "cell-based", "protocol": "as §7"}, "[9]": {"system": "large bowel cancer cell line LOVO", "assay": "tests as in Examples 1, 2 and 3", "type": "cell-based", "protocol": "as §7"}, "[10]": {"system": "pancreas cancer cell line PA-1", "assay": "tests as in Examples 1, 2 and 3", "type": "cell-based", "protocol": "as §7"}, "[11]": {"system": "thyroid gland cancer cell line SW1736", "assay": "tests as in Examples 1, 2 and 3", "type": "cell-based", "protocol": "as §7"}, "Sarmonella typhii": {"system": "Sarmonella typhii", "conditions": "on Sarmonella typhii; cited from earlier work"}, "Escherichia coli": {"system": "Escherichia coli", "conditions": "on Escherichia coli; cited from earlier work"}, "Staphylococcus aureus": {"system": "Staphylococcus aureus", "conditions": "on Staphylococcus aureus; cited from earlier work"}, "[12]": {"conditions": "in body; cited from earlier work"}}, "data": [{"smiles": "OCc1ccccc1", "note": "[BA, Benzyl alcohol]", "values": [{"measurement": "BA concentration at which cell adhesiveness begins to decrease", "setting": "[1]", "value": "about 1.5 mg/ml"}, {"measurement": "cell shape", "setting": "[2]", "value": "cell shape changed from a spindle to a circle and got swollen"}, {"measurement": "tumor diameter compared with the control", "setting": "[3]; nude mouse, 4 mg/0.5 ml twice a week to or around the tumor, 16 mg administration (2 weeks)", "value": "contracted in diameter compared with the control"}, {"measurement": "tumor diameter decrease", "setting": "[3]; nude mouse, 4 mg/0.5 ml twice a week to or around the tumor, after the 32 mg administration (4 weeks)", "value": "½"}, {"measurement": "H-E dyed tumor tissue image", "setting": "[3]; tumor extracted after 4 weeks of administration, FIG. 5", "value": "cells were scattered sparsely with the swollen cytoplasm, appearance of the inclusion bodies and contraction of the nucleus"}, {"measurement": "DNA laddering", "setting": "[4]", "value": "No laddering was recognized"}, {"measurement": "Digoxigenin dyeing in the nucleus (TUNEL)", "setting": "STKM cells", "value": "no Digoxigenin dyeing image in the nucleus"}, {"measurement": "Caspase-3 activity", "setting": "Caspase-3; 37° C. for 48 hrs, FIG. 8", "value": 45.4, "unit": "RFI/well/Hr"}, {"measurement": "Caspase-3 activity compared with positive control (Arac)", "setting": "Caspase-3; 48 hrs, p<0.001", "value": "significantly lower than that of the positive control"}, {"measurement": "Caspase-8 activity compared with positive control (Arac)", "setting": "Caspase-8; FIG. 9", "value": "significantly lower than that of the positive control"}, {"measurement": "Caspase activity compared with negative control (physiological saline)", "setting": "Caspase-8; FIGS. 8, 9", "value": "almost equal to that of the negative control"}, {"measurement": "resistance to BA compared with Huvec", "setting": "lung cell line (WI38)", "value": "more resistant to BA than the Huvec"}, {"measurement": "cell death effect compared to STKM", "setting": "lung cell line (WI38); colorimetric assay", "value": "lower effect compared to the STKM"}, {"measurement": "cell death effect compared to STKM", "setting": "[5]", "value": "lower effect compared to the STKM"}, {"measurement": "BA concentration at which cell mortality begins to increase (same as adhesiveness)", "setting": "[6]", "value": "about 1.5 mg/ml"}, {"measurement": "route of cell death", "setting": "[6]", "value": "did not arrive at death through an apoptosis route, but through a necrosis one"}, {"measurement": "BA concentration at which cell mortality begins to increase (same as adhesiveness)", "setting": "[7]", "value": "about 1.5 mg/ml"}, {"measurement": "route of cell death", "setting": "[7]", "value": "did not arrive at death through an apoptosis route, but through a necrosis one"}, {"measurement": "BA concentration at which cell mortality begins to increase (same as adhesiveness)", "setting": "[8]", "value": "about 1.5 mg/ml"}, {"measurement": "route of cell death", "setting": "[8]", "value": "did not arrive at death through an apoptosis route, but through a necrosis one"}, {"measurement": "BA concentration at which cell mortality begins to increase (same as adhesiveness)", "setting": "[9]", "value": "about 1.5 mg/ml"}, {"measurement": "route of cell death", "setting": "[9]", "value": "did not arrive at death through an apoptosis route, but through a necrosis one"}, {"measurement": "BA concentration at which cell mortality begins to increase (same as adhesiveness)", "setting": "[10]", "value": "about 1.5 mg/ml"}, {"measurement": "route of cell death", "setting": "[10]", "value": "did not arrive at death through an apoptosis route, but through a necrosis one"}, {"measurement": "BA concentration at which cell mortality begins to increase (same as adhesiveness)", "setting": "[11]", "value": "about 1.5 mg/ml"}, {"measurement": "route of cell death", "setting": "[11]", "value": "did not arrive at death through an apoptosis route, but through a necrosis one"}, {"measurement": "phenol coefficient", "setting": "Sarmonella typhii", "value": 0.4}, {"measurement": "phenol coefficient", "setting": "Escherichia coli", "value": 0.6}, {"measurement": "phenol coefficient", "setting": "Staphylococcus aureus", "value": 0.5}, {"measurement": "metabolism and excretion", "setting": "[12]", "value": "converted to benzoic acid in body and excreted as hippuric acid"}]}]}
